The test system of test [1] is firefly luciferase expression cassette. The test can be described thus: Transfection evaluating multiple promoters, SLF* CEM system, dual luciferase assay, 293T Renilla. The format is cell-based, human. As to conditions: FIGS. 15A and 15B; ybTATA, miniCMV, Het, Ef1a core, hPGK; 0, 5, 15 or 50 nM CEM207. Here is the method: Next, it was determined whether SLF*CEMs can regulate AAV. The cassette shown in FIG. 14A was inserted into rAAV2 and infected into HEK293T Renilla. […] Next, it was explored whether the cassette was truly modular by varying the promoter while retaining SLF* CEM successful activation of rAAV2.
Transfection Evaluating Multiple Promoters—SLF* CEM System with 0, 5, 15 or 50 nM CEM207:
Day 1 (0 h): 293T cells with stably infected Renilla under the control of full length Ef1a promoter were plated in a 96 well plate; 10 k cells/well, 100 μL media/well. All conditions were plated in biological triplicate.
Day 2 (24 h): A PEI transfection mixture of each construct (Jet, ybTATA, miniCMV, Ef1a core, and hPGK) was prepared and added to each well: 0.1 μg of DNA, 0.3 μL of PEI, and 4 μL of Opti-MEM per well, with PEI added last. Reagents were mixed well and incubated for 15 minutes. 4 μL of the appropriate transfection mixture was added to each well. […]
Day 5 (96 h): […] Data was obtained using the Promega Dula Luciferase Reporter (DLR) assay: first, the cells were washed with 100 μL of PBS/well dropwise followed by 20 μL of 1× passive lysis buffer (PLB) added to each well. The cells were incubated for 15 minutes in PLB and the assay ran on pheraSTAR microplate reader with 25 μL of each DLR reagent, gain=2000.

The next test deals with T1, BRD4 (Homo sapiens, UniProt O60885+P62942).
T1 construct: achieved via the accumulation of endogenous epigenetic machinery at the designed gRNA targeted gene locus; endogenous in cells; host or cells: HCT116 cells stably expressing dCas9 and MS2-FKBP*x2, transfected with CXCR4 or NT gRNA
T1 sequence (P62942 2-108 limits assumed, other chains not shown): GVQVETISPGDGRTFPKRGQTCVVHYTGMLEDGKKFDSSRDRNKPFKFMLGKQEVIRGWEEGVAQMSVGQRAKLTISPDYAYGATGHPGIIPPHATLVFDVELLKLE
The test is described as follows: BRD4 ChIP-seq, HCT116. The format is cell-based. The text has this:
Given that SLF*-CEMa facilitates gene activation via recruitment of BET proteins including BRD4, BRD4 enrichment at a specific targeted gene locus was investigated to further validate the mechanism of CEM207. Based on the alamarBlue cell viability assay performed with HEK293T and HCT116 cells, CEM207 can have different toxicity effects on different cell lines after 4 days of exposure. Specifically, HCT116 appeared to be more tolerant to CEM207 treatment. […] Based on the cell viability data, chromatin immunoprecipitation-qPCR (ChIP-qPCR) was performed in stably infected HCT116 cells. […] The signal change was measured between samples when only CEM207 or gRNA are present and those where both are present. […] To determine outlier significance, a “z-score” distribution was calculated by taking the scaled means of the x- and y-axis values and calculated P values for each point within this distribution. […]
ChIP-seq library preparation. […] Libraries were sequenced to a depth of 30 million […] (75-bp single-end reads) on an Illumina NextSeq 500.
ChIP-seq analyses. Reads from the sequencer were demultiplexed using bcl2fastq (v2.20.0). Sequencing adapters on reads were trimmed using cutadapt (v1.12) using options -a GATCGGAAGAGC (SEQ ID NO: 35) and—minimum-length 36 in […]. […]

This is an account of results in patent US20250177566A1, “USE OF CHEMICAL EPIGENETIC MODIFIERS TO MODULATE GENE EXPRESSION” (The University of North Carolina at Chapel Hill, priority 2022, published 2025).

As to `CC[C@H](C(=O)N1CCCC[C@H]1C(=O)O[C@H](CCc1ccc(OC)c(OC)c1)c1cccc(OCC(=O)NCCOCCOCCNC(=O)C[C@@H]2N=C(c3ccc(Cl)cc3)c3c(sc(C)c3C)-n3c(C)nnc32)c1)c1cc(OC)c(OC)c(OC)c1` [CEM207, (R)-1-(3-((14-((S)-4-(4-Chlorophenyl)-2,3,9-trimethyl-6H-thieno[3,2-f][1,2,4]triazolo[4,3-a][1,4]diazepin-6-yl)-2,13-dioxo-6,9-dioxa-3,12-diazatetradecyl)oxy)phenyl)-3-(3,4-dimethoxyphenyl) propyl(S)-1-((S)-2-(3,4,5-trimethoxyphenyl)butanoyl) piperidine-2-carboxylate], the “activation with varied minimal promoters” value in test [1] is listed as “tolerates a variety of minimal promoters”. Moreover, the “BRD4 ChIP-seq signal at the CXCR4 locus” value at BRD4 (25 nM CEM207 + sgCXCR4) is recorded as “well-defined BRD4 signal peak at the CXCR4 locus”. Also, on BRD4 (off-target assessment, CEM207 or gRNA only vs both present), the “BRD4 peaks having a log2 fold-change in signal less than two in either direction” value stood at 96.8%.
